Test systems include NCI-H522; MOLT-4; U-251; SK-MEL-28; Malme-3M; HOP-62; RXF 393; SF-539; K562; NCI-H460; CAKI-1; SN12C; PC-3; UO-31; M14; TK-10; LOX IMVI; COLO 205; HL-60; SNB-75.
Assay in all cases: NCI anticancer screen, dose series, 48 h

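Where inhibition never reached the appropriate level, the endpoint shown equals the highest concentration tested. Otherwise, values were interpolated linearly from a five-concentration, 48-hour dose response in 96-well plates. GI50 marks 50% less growth.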 The source made the active and inactive calls. No stated cut-off is given here; in the data, active = GI50 up to about 1.1 µM and inactive = higher.

Consider `O=c1sc2c(s1)SSSSS2`, for which the GI50 in the experiment with NCI-H522 is 34.2 µM (inactive); in the experiment on MOLT-4, 11.8 µM (inactive); in the experiment with U-251 it was > 50 µM (inactive); with SK-MEL-28, > 50 µM (inactive); in the experiment on Malme-3M it was > 50 µM (inactive); in the experiment with HOP-62 it was > 50 µM (inactive). For the same molecule, the GI50 in the experiment on RXF 393 was > 50 µM (inactive); with SF-539 it was 20.2 µM (inactive); in the experiment on K562 it was 31.8 µM (inactive); in the experiment with NCI-H460 it was 21.4 µM (inactive); in the experiment on CAKI-1 it was > 50 µM (inactive); in the experiment on SN12C it was > 50 µM (inactive). For the same molecule, the GI50 with PC-3 is > 50 µM (inactive); with UO-31, > 50 µM (inactive); in the experiment on M14, > 50 µM (inactive); in the experiment on TK-10, > 50 µM (inactive); with LOX IMVI, 30.5 µM (inactive); in the experiment on COLO 205, > 50 µM (inactive).

As to `COC(=O)C1C(OCc2ccccc2)C2CCC1(OC)C=C2C` (stereo unspecified), the GI50 with NCI-H522 is 29.4 µM (inactive); with MOLT-4, 24.9 µM (inactive); with U-251, > 55.2 µM (inactive); with SK-MEL-28, > 100 µM (inactive); in the experiment on HL-60, 10.8 µM (inactive); in the experiment with Malme-3M it was > 100 µM (inactive). For the same molecule, the GI50 was > 100 µM (inactive) in the experiment on SNB-75; > 100 µM (inactive) in the experiment with HOP-62; 54.3 µM (inactive) with RXF 393; 97.7 µM (inactive) in the experiment on SF-539; 41.1 µM (inactive) with K562; > 100 µM (inactive) with NCI-H460. Also, the GI50 in the experiment with CAKI-1 was > 77.6 µM (inactive); in the experiment with SN12C, > 100 µM (inactive); in the experiment with UO-31 it was > 100 µM (inactive); with M14, 60.8 µM (inactive); in the experiment on TK-10 it was > 74.3 µM (inactive); in the experiment with LOX IMVI, > 68.7 µM (inactive). Also, in the experiment on COLO 205, the GI50 was > 100 µM (inactive).

`COc1cc(/C=C/C(=O)OC[C@H](Br)[C@H](OC(C)=O)c2ccc3c(c2)OCO3)cc(OC)c1OC`: the GI50 with NCI-H522 was > 100 µM (inactive); with MOLT-4, 7.69 µM (inactive); with U-251, > 100 µM (inactive); with SK-MEL-28, > 100 µM (inactive); in the experiment on Malme-3M, > 100 µM (inactive); with HOP-62, > 100 µM (inactive). Also, the GI50 with RXF 393 was > 100 µM (inactive); with SF-539, > 100 µM (inactive); in the experiment on K562, > 100 µM (inactive); in the experiment on CAKI-1, > 100 µM (inactive); in the experiment with SN12C, > 100 µM (inactive); with PC-3, 86.3 µM (inactive). Moreover, the GI50 in the experiment on UO-31 is 26 µM (inactive); with M14, > 100 µM (inactive); with TK-10, > 100 µM (inactive); with LOX IMVI, > 100 µM (inactive); in the experiment on COLO 205, > 100 µM (inactive).

In the case of `O=C1NC2(CCCC2)C(=O)C12CCCC2`, the GI50 in the experiment on NCI-H522, in the experiment with MOLT-4, with U-251, with SK-MEL-28, with HL-60 and in the experiment with Malme-3M was > 100 µM (inactive) in each case. Besides, the GI50 in the experiment with SNB-75, with HOP-62, with RXF 393, with SF-539, with K562 and with NCI-H460 was > 100 µM (inactive) in each case. The GI50 with CAKI-1, in the experiment with SN12C, in the experiment with UO-31, in the experiment with M14, with TK-10 and in the experiment on LOX IMVI was > 100 µM (inactive) throughout. Besides, the GI50 in the experiment on COLO 205 is > 100 µM (inactive).

Turning to `Cc1oc(N)c(S(=O)(=O)/C(C#N)=C/c2ccccc2[N+](=O)[O-])c1C`, the GI50 was 19.1 µM (inactive) in the experiment with NCI-H522; 22.4 µM (inactive) with MOLT-4; 19.5 µM (inactive) with U-251; 24.2 µM (inactive) in the experiment with SK-MEL-28; 33.8 µM (inactive) with Malme-3M; 33.2 µM (inactive) in the experiment on SNB-75. Moreover, the GI50 is 31.1 µM (inactive) in the experiment on HOP-62; 21.9 µM (inactive) with RXF 393; 25.5 µM (inactive) in the experiment with SF-539; 18.6 µM (inactive) with K562; 31.1 µM (inactive) in the experiment on NCI-H460; 22.6 µM (inactive) with CAKI-1. Further, the GI50 with SN12C was 22.9 µM (inactive); in the experiment on PC-3 it was 23.1 µM (inactive); with UO-31, 16.4 µM (inactive); in the experiment on M14, 18.5 µM (inactive); with TK-10 it was 50.2 µM (inactive); in the experiment with LOX IMVI it was 14 µM (inactive). Besides, the GI50 with COLO 205 was 21.7 µM (inactive).

For `N[C@H](C(=O)O)[C@H](Cl)CC(=O)O`, the GI50 in the experiment on NCI-H522, with MOLT-4, in the experiment on U-251, with SK-MEL-28, in the experiment with HL-60 and with Malme-3M was > 100 µM (inactive) throughout. Moreover, the GI50 with SNB-75, in the experiment on HOP-62, in the experiment with RXF 393, in the experiment on SF-539, in the experiment on K562 and in the experiment on NCI-H460 was > 100 µM (inactive) in each case. In addition, the GI50 in the experiment with CAKI-1, in the experiment on SN12C, in the experiment on UO-31, in the experiment with M14, in the experiment on TK-10 and in the experiment with LOX IMVI was > 100 µM (inactive) each time. In addition, in the experiment on COLO 205, the GI50 was > 100 µM (inactive).

Take `CC1=C2CCCC2=C/C(=N/Nc2ccc([N+](=O)[O-])cc2[N+](=O)[O-])CC1`: the GI50 in the experiment with NCI-H522, in the experiment on MOLT-4, in the experiment on U-251, in the experiment on SK-MEL-28, in the experiment with HL-60 and in the experiment on Malme-3M was > 100 µM (inactive) in each case. Also, the GI50 is 45.2 µM (inactive) in the experiment with SNB-75; > 100 µM (inactive) with HOP-62; > 100 µM (inactive) in the experiment with RXF 393; > 100 µM (inactive) with SF-539; > 100 µM (inactive) with K562; > 100 µM (inactive) in the experiment on NCI-H460. For the same molecule, the GI50 with CAKI-1, in the experiment with SN12C, in the experiment with UO-31, in the experiment on M14, in the experiment with TK-10 and in the experiment on LOX IMVI was > 100 µM (inactive) each time. For the same molecule, the GI50 in the experiment with COLO 205 is > 100 µM (inactive).

`COc1cccc2c3ccccc3c3nc[nH]c3c12`: the GI50 with NCI-H522 is 24.5 µM (inactive); with MOLT-4 it was 9.08 µM (inactive); with U-251 it was 14.7 µM (inactive); in the experiment on SK-MEL-28, 19.7 µM (inactive); in the experiment with Malme-3M, 36.1 µM (inactive); in the experiment on SNB-75, > 47.8 µM (inactive). Also, the GI50 in the experiment with HOP-62 was 54.3 µM (inactive); in the experiment on RXF 393 it was 17.5 µM (inactive); in the experiment with SF-539, 18.2 µM (inactive); in the experiment on K562, 12.4 µM (inactive); in the experiment with NCI-H460, 23.7 µM (inactive); in the experiment with CAKI-1, 48.4 µM (inactive). Moreover, the GI50 with SN12C was > 66.5 µM (inactive); in the experiment with PC-3, 30.8 µM (inactive); in the experiment on UO-31 it was 41.7 µM (inactive); in the experiment on M14, 28.6 µM (inactive); in the experiment on TK-10 it was 26.1 µM (inactive); with LOX IMVI, 33.8 µM (inactive). Also, the GI50 with COLO 205 is 17.9 µM (inactive).

As for `O=c1cc(-c2ccccc2)oc2ccc(-c3ccc4oc(-c5ccccc5)cc(=O)c4c3)cc12`, the GI50 in the experiment with MOLT-4 was 11.2 µM (inactive); with HL-60 it was 10.1 µM (inactive); in the experiment on Malme-3M, 20.3 µM (inactive); in the experiment on HOP-62, 19.1 µM (inactive); in the experiment with SF-539, 15.6 µM (inactive); in the experiment on K562 it was 14.2 µM (inactive). Besides, the GI50 was 19.6 µM (inactive) in the experiment on NCI-H460; 16.6 µM (inactive) in the experiment on CAKI-1; > 10 µM (inactive) with SN12C; > 10 µM (inactive) with PC-3; 8.95 µM (inactive) in the experiment with UO-31; 16.6 µM (inactive) in the experiment with M14. The GI50 in the experiment with TK-10 was 29.4 µM (inactive); in the experiment with LOX IMVI, 17.3 µM (inactive); in the experiment with COLO 205, 17.1 µM (inactive).

In the case of `COC(=O)c1ccc2[nH]c3c(c2c1)CC(=O)Nc1ccccc1-3`, the GI50 with NCI-H522 is > 100 µM (inactive); in the experiment on MOLT-4 it was 1.31 µM (inactive); with U-251, 6.68 µM (inactive); with SK-MEL-28, > 100 µM (inactive); in the experiment on Malme-3M, > 100 µM (inactive); with SNB-75, 2.3 µM (inactive). In addition, the GI50 in the experiment with HOP-62 was 24.3 µM (inactive); with SF-539, 2.94 µM (inactive); with K562, 27.4 µM (inactive); in the experiment with NCI-H460, > 100 µM (inactive); with CAKI-1, 56 µM (inactive); with SN12C it was > 100 µM (inactive). Besides, the GI50 is > 100 µM (inactive) in the experiment on PC-3; 0.0278 µM (active) with UO-31; 35.8 µM (inactive) in the experiment on M14; 83.9 µM (inactive) with TK-10; > 100 µM (inactive) in the experiment with LOX IMVI; > 100 µM (inactive) in the experiment on COLO 205.

As for `COc1ccc(C(=O)O[C@H]2CC[C@@]3(C)[C@@H]4CC[C@H]5[C@]6(O)C[C@H](O)[C@@]7(O)[C@@H](CN8C[C@@H](C)CC[C@H]8[C@@]7(C)O)[C@]6(O)C[C@@]53OC24O)cc1OC` [VERATRIDINE], the GI50 with NCI-H522 is > 100 µM (inactive); in the experiment on MOLT-4 it was 95.5 µM (inactive); in the experiment on U-251 it was > 100 µM (inactive); in the experiment on SK-MEL-28 it was > 100 µM (inactive); with Malme-3M, > 100 µM (inactive); in the experiment on SNB-75 it was 23.4 µM (inactive). Further, the GI50 in the experiment on HOP-62 is > 100 µM (inactive); in the experiment with RXF 393, 57.5 µM (inactive); with SF-539, 82 µM (inactive); in the experiment with K562, > 100 µM (inactive); in the experiment on NCI-H460 it was 75.2 µM (inactive); in the experiment on CAKI-1, > 100 µM (inactive). In addition, the GI50 with SN12C, with PC-3, in the experiment on UO-31, with M14, in the experiment with TK-10 and in the experiment with LOX IMVI was > 100 µM (inactive) throughout. The GI50 with COLO 205 is > 100 µM (inactive).

Source of the values: ChEMBL document CHEMBL1201862, “PubChem BioAssay data set” (2004).
